Source: BindingDB's records for doi:10.1016/j.bmcl.2009.04.023 (Banyu Pharmaceutical, 2009)

Biological target: Nociceptin receptor (Homo sapiens, UniProt P41146)
Assay: In Vitro Binding Assay (IC50) and In Vitro Agonism/Antagonism Measurements (EC50/IC50)
Conditions: pH 7.4; 37 °C
Procedure: Compounds were tested for their inhibitory effects on ligand binding to the human ORL1 receptor. Bound and free radioligands are separated by filtration using a unifilter plate GF/C-96. The remaining radioactivity on the filter was counted using a TopCount-HTS (PerkinElmer). Specific binding of [125I][Tyr14]nociceptin is defined as the difference between total binding and nonspecific binding in the presence of 1 uM nociceptin. J-113397 was used as internal control across all assay plates for internal validation. IC50 values are calculated using GraphPad Prism. Agonist/antagonist activities were measured by the [35S]GTPgamma-S binding to proteins using membrane fractions of CHO cells expressing ORL1. Nonspecific binding is determined in the presence of 10 uM unlabeled GTPgammaS. Membrane-bound radioactivity is measured using a TopCount-HTS (PerkinElmer). Specific binding of [35S]GTPgammaS is determined as a difference between the control (in the presence of appropriate concentration of nociceptin), and the baseline (in the presence of DMSO instead of compound). EC50/IC50 values are calculated from % of specific binding in the presence of various concentration of the compound using GraphPad Prism 3.03.

Sequence of Nociceptin receptor (P41146 whole entry): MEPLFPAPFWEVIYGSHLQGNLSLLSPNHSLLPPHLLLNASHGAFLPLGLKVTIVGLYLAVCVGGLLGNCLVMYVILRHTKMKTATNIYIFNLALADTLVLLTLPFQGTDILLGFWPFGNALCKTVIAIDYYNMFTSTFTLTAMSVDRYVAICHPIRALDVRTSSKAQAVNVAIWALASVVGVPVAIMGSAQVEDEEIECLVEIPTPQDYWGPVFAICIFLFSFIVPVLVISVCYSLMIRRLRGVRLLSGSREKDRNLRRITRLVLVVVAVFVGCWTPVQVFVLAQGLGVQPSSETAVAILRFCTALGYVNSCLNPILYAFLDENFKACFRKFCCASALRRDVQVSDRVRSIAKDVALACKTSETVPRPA

SMILES | IC50
CCN1CCN(c2cc3[nH]c(C(=O)[C@]4(C)CC[C@@H](NC(=O)OC)CC4)nc3cc2C)CC1 [2-Cyclohexylcarbonylbenzimidazole, 7b] | 5.3 nM
CCN1CCN(c2cc3[nH]c(C(=O)C4(C)CCC(=O)CC4)nc3cc2Cl)CC1 [2-Cyclohexylcarbonylbenzimidazole, 9] | 38 nM
CCN1CCN(c2cc3[nH]c(C(=O)[C@]4(C)CC[C@@H](NC(=O)OC)CC4)nc3cc2Cl)CC1 [2-Cyclohexylcarbonylbenzimidazole, 7a] | 7.5 nM

Compounds with a lower IC50, results first:

IC50 | SMILES
2.4 nM | CCN1CCN(c2cc3[nH]c(C(=O)[C@]4(CC)CC[C@@](C)(O)CC4)nc3cc2Cl)CC1 [2-Cyclohexylcarbonylbenzimidazole, 7e]
1.3 nM | CCN1CCN(c2cc3[nH]c(C(=O)[C@]4(C)CC[C@@](C)(O)CC4)nc3cc2Cl)CC1 [2-Cyclohexylcarbonylbenzimidazole, 7c]
